Test [1] can be described thus: Aspirin-induced gastric damage. Type of test: in vivo, rat. The conditions noted are these: 15 mg/kg PO. The protocol: Aspirin-induced gastric damage was assessed in groups of 10 rats each.
All animals were fasted for 24 hours before and throughout the experiment. Drug or vehicle was given 10 minutes before an oral dose of 1 mL of a 45-mg/mL suspension of aspirin in 0.5% carboxymethylcellulose (CMC).
The animals were sacrificed five hours after aspirin administration and the stomachs removed and opened for examination.

Test [2] is described as follows: Light/dark exploration test (anxiolytic activity). It counts as in vivo, mouse. The protocol: In FIG. 2 the number of mice was 5 and the pretreatment time was 40 minutes. The compound was given p.o. in 0.1, 1, and 10 mg/kg doses.
The apparatus was an open-topped box, 45 cm long, 27 cm wide, and 27 cm high, divided into a small (2/5) area and a large (3/5) area by a partition that extended 20 cm above the walls. There was a 7.5×7.5 cm opening in the partition at floor level. The small compartment was painted black and the large compartment white. The floor of each compartment was marked into 9 cm squares. The white compartment was illuminated by a 100-watt tungsten bulb 17 cm above the box and the black compartment by a similarly placed 60-watt red bulb. The laboratory was illuminated with red light.
All tests were performed between 13 hundred hours, 0 minutes and 18 hundred hours, 0 minutes. Each mouse was tested by placing it in the center of the white area and allowing it to explore the novel environment for five minutes. Its behavior was recorded on videotape and the behavioral analysis was performed subsequently from the recording. Five parameters were measured: the latency to entry into the dark compartment, the time spent in each area, the number of transitions between compartments, the number of lines crossed in each compartment, and the number of rears in each compartment.
Drugs were dissolved in water or saline and administered either subcutaneously, intraperitoneally, or by mouth (PO) via a stomach needle.

Test [3] in a line: Withdrawal from long-term drug or alcohol treatment, mouse light/dark box test. Type of test: in vivo. The note with it: 24-hour withdrawal. The protocol:
The effect of the compounds of the instant invention is illustrated, for example, in the mouse "light/dark box" test in FIGS. 5-12.
In FIG. 5, five animals were given nicotine, 0.1 mg/kg i.p.b.d. for 14 days. After a 24-hour withdrawal period, compound (20) was given at 1.0 mg/kg i.p.b.d.
FIG. 6 illustrates the effect of long-term treatment and withdrawal from nicotine using compound (20A). Five mice were given nicotine at 0.1 mg/kg i.p.b.d. for 14 days. After a withdrawal period of 24 hours, compound (20A) was given at 10 mg/kg i.p.b.d.
FIG. 7 illustrates the effect of long-term treatment and withdrawal from diazepam with intervention with compound (20). Five mice were given diazepam, at 10 mg/kg i.p.b.d. for seven days. Withdrawal was for a 24-hour period; compound 20 was given at 1.0 mg/kg i.p.b.d.
FIG. 8 illustrates the effect of compound (20A) on the long-term treatment and withdrawal from diazepam. Five mice were given diazepam at 10 mg/kg i.p.b.d. for seven days. After a withdrawal period of 24 hours, compound (20A) was given at 10 mg/kg i.p.b.d.
FIG. 9 illustrates the effect compound (20A) on the long-term treatment and withdrawal from alcohol. Five mice were given alcohol in drinking water 8% w/v for 14 days. After a withdrawal period of 24 hours, compound (20) was given at 1.0 mg/kg i.p.b.d.
Five mice were given alcohol in drinking water, 8% w/v for 14 days. After a withdrawal period of 24 hours, compound (20A) was given at 10 mg/kg i.p.b.d.
FIG. 11 illustrates the effectiveness in the long-term treatment and withdrawal from cocaine. Five mice were given cocaine as 1.0 mg/kg i.p.b.d. for 14 days.
Five mice were given cocaine at 1.0 mg/kg i.p.b.d. for 14 days after a withdrawal period of 24 hours, compound (20a) was given at 1.0 mg/kg i.p.b.d.

Test [4] is described as follows: Antagonism of intra-accumbens amphetamine hyperactivity (antipsychotic activity). Type of test: in vivo, rat. The note with it: 20 mg/kg or 30 mg/kg intraperitoneal; amphetamine 20 μg. The protocol: Male Sprague Dawley (CD) Bradford strain rats were used. The rats were housed in groups of five at a temperature of 21°±2° C. on a 12 hour light-dark cycle of lights-on between 07 hours 00 minutes and […]. Rats were fed CRM diet (Labsure) and allowed water ad libitum.
Rats were anesthetized with chloral hydrate (400 mg/kg SC) and placed in a Kopf stereotaxic frame. Chronically indwelling guide cannulae (constructedof stainless steel tubing 0.65 mm diameter held bilaterally in Parspex holders) were implanted using standard stereotaxic techniques to terminate 3.5 mm above the center of the nucleus accumbens (Ant. 9.4, Vert. 0.0, Lat. 1.6) or 5.0 mm above the central nucleus of the amygdala (Ant. 5.8, Vert. -1.8, Lat. ±4.5) (atlas of De Groot, 1959). The guides were kept patent during a 14-day recovery period using stainless steel stylers, 0.3 mm diameter, which extended 0.5 mmbeyond the guide tips.
Rats were manually restrained and the stylers removed. Intracerebral injection cannulae, 0.3 mm diameter, were inserted and drugs delivered in a volume of 0.5 μl over 5 seconds (a further 55 seconds was allowed for deposition) from Hamilton syringes attached via polythene tubing to the injection units. […]
The abilities of the compounds (20) and (20A) to inhibit the hyperactivity caused by the injection of amphetamine into the nucleus accumbens of the rat was measured. […]

Another test concerns the target T1, Central CCK Receptors (Mus musculus, UniProt P56481).
T1 sequence (P56481 1-453): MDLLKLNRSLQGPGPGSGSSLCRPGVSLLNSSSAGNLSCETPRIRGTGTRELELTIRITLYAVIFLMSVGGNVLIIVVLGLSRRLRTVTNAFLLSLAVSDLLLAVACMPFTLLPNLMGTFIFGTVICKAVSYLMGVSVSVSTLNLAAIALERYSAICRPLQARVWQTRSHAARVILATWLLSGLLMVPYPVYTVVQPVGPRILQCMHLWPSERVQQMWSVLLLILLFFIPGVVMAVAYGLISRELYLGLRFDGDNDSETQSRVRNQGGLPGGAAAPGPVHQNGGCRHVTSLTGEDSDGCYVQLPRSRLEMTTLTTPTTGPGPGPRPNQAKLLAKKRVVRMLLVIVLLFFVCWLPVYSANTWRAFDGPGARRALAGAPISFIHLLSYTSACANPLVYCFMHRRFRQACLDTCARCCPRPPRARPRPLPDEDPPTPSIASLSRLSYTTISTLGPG
Put plainly: Binding to central CCK receptors (tritiated-pentagastrin displacement, cerebral cortical membranes). The note with it: read-out: Binding to Central CCK Receptors Ki; displacement of 2 nM tritiated-pentagastrin, mouse cerebral cortical membranes.

Test [5] concerns pentagastrin stimulated gastric acid secretion. Put plainly: Pentagastrin stimulated gastric acid secretion (Ghosh and Schild perfused stomach). Type of test: in vivo, rat. The conditions noted are these: 1 nmole/kg pentagastrin. Here is the method: They were anesthetized with urethane (1.5 g/kg IP) and the trachea cannulated to aid spontaneous respiration. The stomach was perfused continuously using a modification of the original method of Ghosh & Schild in "Continuous recording of acid secretion in the rat", Br. J. Pharmac. […] The fluid was propelled by a roller pump (Gilson, Minipuls 2), through heating coils to bring its temperature to 37°±1° C. The perfusion fluid was collected by the fundic collecting funnel and passed to a pH electrode connected to a Jenway pH meter (PHM6). An output was taken from the pH meter to a Rikadenki chart recorder for the on-line recording of the pH of the gastric perfusate.
Pentagastrin was stored as a frozen aliquot and diluted to the required concentrations with sterile 0.9% w/v NaCl. Novel compounds were dissolved in sterile 0.9% w/v NaCl on the day of the experiment. Drugs were administered IV through a cannulated jugular vein as a bolus in a dose volume of 1 mL/kg washed in with 0.15 mL 0.9% w/v NaCl. Basal pH was allowed to stabilize before administration of compounds was begun.

A short description of test [6]: Palatable Diet Feeding assay. Type of test: in vivo, rat. The note with it: dose producing 50% of the maximum effect possible (zero food intake). Here is the method: In the Palatable Diet Feeding assay, adult male Hooded Lister rats weighing between 200-400 g were housed individually and trained to eat a palatable diet. This diet consisted of Nestles sweetened condensed milk, powdered rat food and rat water which when blended together set to a firm consistency. […] The intake of palatable diet was measured by weighing the food container before and after the 30-minute access period (limits of accuracy 0.1 g). Care was taken to collect and correct for any spillage of the diet. Rats had free access to pellet food and water except during the 30-minute test period.
After the training period, dose-response curves were constructed for CCK8 and several representative compounds of the present invention (n=8-10 rats per dose level).

Each structure is given as a SMILES string. pKi: −log10 of the molar value.

Description for Central CCK Receptors: The biological activity of compounds of the present invention was evaluated employing an initial screening test which rapidly and accurately measured the binding of the tested compound to known CCK receptor sites.
The resulting suspension was centrifuged, the supernate was discarded, and the pellet was washed by resuspension in Tris-HCl buffer followed by recentrifugation.
In saturation studies, cerebral cortical membranes were incubated at 23° C. for 120 minutes in a final volume of 500 μliter of Hepes incubation buffer (pH 7.2) together with 0.2-20 nM tritiated-pentagastrin (Amersham International, England).
In each case, the nonspecific binding was defined as that persisting in the presence of the unlabeled octapeptide CCK26-33 (10^-6 M).
Following incubation, radioactivity bound to membranes was separated from that free in solution by rapid filtration through Whatman GF/B filters and washed three times with 4 mL of ice cold Tris-HCl buffer.
The specific binding to CCK receptor sites was defined as the total bound tritiated-pentagastrin minus the amount of tritiated-pentagastrin bound in the presence of 10^-6 octapeptide, CCK26-33.
The inhibition constant (Ki) of the test compound was then calculated according to the Cheng-Prusoff equation: [formula] where [L] is the concentration of radiolabel and Ka is the equilibrium dissociation constant.

On to `CNC(=C[N+](=O)[O-])NCCSCc1ccc(CN(C)C)o1` [ranitidine, reference compound], for which the “inhibition of ulcer formation” value in test [1] worked out at 74%. In addition, the ulcer score in test [1] (±SD, saline control 12.1±6.85) is 3.2±2.35.
As to `CN1C(=O)CN=C(c2ccccc2)c2cc(Cl)ccc21` [Diazepam, reference compound], the “effect on crossings compared with compound (20)” value in test [2] (0.25 mg/kg IP, same experiment) is reported as “effect identical to compound (20)”.
What is called pKi is the Ki on a negative log10 scale, so that one unit is a factor of ten. On to `CC(Cc1c[nH]c2ccccc12)(NC(=O)OC1CC2CCC1(C)C2(C)C)C(=O)NCC(NC(=O)CCC(=O)O)c1ccccc1` (stereo not drawn) [Example 20A, [1S -[1α,2β[S*(S*)], 4α]]-4-[[2-[[3-(1H-indol-3-yl)-2-methyl-1-oxo-2-[[[(1,7,7-trimethylbicyclo[2.2.1]hept-2-yl)oxy]carbonyl]amino]propyl]amino]-1-phenylethyl]amino]-4-oxobutanoic acid], for which, in test [3] (alcohol 8% w/v in drinking water 14 days, compound 10 mg/kg i.p.b.d.), the “time spent in the light section after withdrawal from alcohol (FIG. 10)” value is “increased time spent in the light section”. The “time spent in the light section after withdrawal from cocaine (FIG. 12)” value in test [3] (cocaine 1.0 mg/kg i.p.b.d. 14 days, compound 1.0 mg/kg i.p.b.d.) is “increase in time spent in the light section”. The “time spent in the light section after withdrawal from diazepam (FIG. 8)” value in test [3] (diazepam 10 mg/kg i.p.b.d. seven days, compound 10 mg/kg i.p.b.d.) was “demonstrates the effectiveness of the compound”. The “time spent in the light area after withdrawal from nicotine (FIG. 6)” value in test [3] (nicotine 0.1 mg/kg i.p.b.d. 14 days, compound 10 mg/kg i.p.b.d.) is “increase of time spent in the light area”. Also, in test [4], the “hyperactivity caused by intra-accumbens injection of amphetamine” value is “reduced the hyperactivity”. Moreover, the pKi on Central CCK Receptors was 8.52.
For `CC(Cc1c[nH]c2ccccc12)(NC(=O)OC1C2CC3CC(C2)CC1C3)C(=O)NC(COC(=O)CCC(=O)O)Cc1ccccc1` (stereo not drawn) [Example 16, [R-(R*,S*)]-2-[[3-(1H-indol-3-yl)-2-methyl-1-oxo-2-[[(tricyclo[3.3.1.1^3,7 dec-2-yloxy)carbonyl]amino]propyl]amino]-3-phenylpropyl butanedioate], the pKi at Central CCK Receptors is 7.52. Also, the “reversibility of the antagonism” value in test [5] is recorded as “reversible with full recovery of the response to pentagastrin”. Further, the “effect on stimulation of gastric acid secretion produced by pentagastrin” value in test [5] (compound IV, anesthetized rat) is “attenuated”. For the same molecule, in test [5] (cumulative dose of 1.1 μmole/kg, initial pentagastrin response 254 μmoles/1 H^+), the “gastric acid secreted in response to pentagastrin after compound” value was determined as 128 μmoles/1 H^+. The “Inhibition of Feeding on Rat Palatable Diet Assay I.P. MPE50” value in test [6] is 10.5 mg/kg.
As to `C[C@](Cc1c[nH]c2ccccc12)(NC(=O)OC1C2CC3CC(C2)CC1C3)C(=O)NC[C@H](NC(=O)/C=C/C(=O)O)c1ccccc1` (relative stereo) [Example 22, [R-[R*,R*-(E)]]-4-[[2-[[3-(1H-indol-3-yl)-2-methyl-1-oxo-2-[[(tricyclo[3.3.1.1^3,7]dec-2-yloxy)carbonyl]amino]propyl]amino]-1-pbenylethyl]amino]-4-oxo-2-butenoic acid], the “time spent in the light area of the test box” value in test [2] (SC) was “significantly (p <0.01) increased the time spent in the light area”. The “anxiolytic activity by the subcutaneous route” value in test [2] (subcutaneous) is on record as “active”.
For the molecule `CC(Cc1c[nH]c2ccccc12)(NC(=O)O[C@@H]1CCCC[C@H]1Cl)C(=O)NC(CO)Cc1ccccc1` (mixture of isomers) [Example 3, (±)-Trans-2-chlorocyclohexyl [2-[[1-(hydroxymethyl)-2-phenyethyl]amino]-1-(1H-indol-3-ylmethyl)-1-methyl-2-oxoethyl]carbamate. (D-tryptophan residue; L-phenylalanine residue).], at Central CCK Receptors, the pKi was 6.59. In test [6], the “Inhibition of Feeding on Rat Palatable Diet Assay I.P. MPE50” value came to 30.7 mg/kg.

(Values after patent publication US5622983A, “N-substituted cycloalkyl and polycycloalkyl α-substituted Trp-Phe- and phenethylamine derivatives” (Warner-Lambert Company, priority 1995, dated 1997).)
